Data reported in US10292390B2, “Inhibition and dispersion of bacterial biofilms with 2-aminobenzimidazole derivatives” (WISCONSIN ALUMNI RESEARCH FOUNDATION, priority 2011, dated 2019).
Entries after “also recorded” stand apart in the source; their conditions may differ. Where two headings read alike, the source gives them in different places.

Key:
[1] = tested on: P. aeruginosa PAO1 biofilm; assay: crystal violet static biofilm inhibition assay; type: cell-based, Pseudomonas aeruginosa; settings: for IC50: Pseudomonas aeruginosa, PAO1
Procedure: Stilbenes 1, 2, and 4a-b were tested for inhibition of biofilm formation in a wild-type P. aeruginosa strain (PAO1) at 500 μM using standard static biofilm growth assays.
Biofilms were grown in a modified M9 minimal media in 96-well microtiter plates, and crystal violet staining of the surface-associated biomass was used to quantify biofilm growth at 12 and 24 h (see The Examples).
A modified version of the widely used crystal violet (CV) microtiter plate biofilm assay, first described by Christensen et al. and later popularized by O'Toole et al., [57] was used in this study and is described in detail below.
Compounds to be evaluated for biofilm modulatory activity were added to the assay microtiter plates by means of a “solvent evaporation” delivery. This delivery method involves preparation of compound stock solutions, addition of stocks to microtiter plates at appropriate volumes to obtain target molar quantities per well, evaporation of the solvent, and re-solubilization of the compound in the final assay medium upon inoculum addition. This delivery method was adopted to avoid the biofilm inhibitory effects observed with an “organic solvent-to-solution” delivery method (e.g., DMSO-to-media; data not shown), which is more commonly done in small molecule screens. EtOH was chosen as the solvent for solvent evaporation delivery in this study based on the chemical resistance limitations of polystyrene microtiter plates. Prior to each experiment, EtOH stock solutions of compounds being evaluated were prepared, diluted, and added to microtiter plates at varied volumes to obtain a target final concentration per well upon inoculum addition. Plates were incubated at 37° C. to evaporate EtOH and sterilized in a Baker SterilGARD III Advance Biological Safety Cabinet by UV-C germicidal irradiation for 30 min (lids removed). EtOH only was added to wells designated as “no compound” positive controls (Pos. Con.) and “no bacteria” negative controls (note, controls lacking bacteria yielded no significant staining in the CV assay (data not shown)). The outer wells were never used for test samples as evaporation and significant deviations in growth were observed; thus, outer wells were filled with sterile 18 MΩ H2O to minimize these effects.
Bacterial samples for biofilm assessment were prepared by first streaking a freezer stock of P. aeruginosa PAO1 on an LB/agar plate and incubating at 37° C. for ˜16 h. Single colonies were selected and used to inoculate LB medium (10 mL) in a 25 mL Erlenmeyer flask. The culture was grown on an incubator-shaker (200 rpm) at 37° C. for ˜16 h to an OD600 of ˜1.0. Overnight cultures were gently decanted into falcon tubes to minimize transfer of biofilm produced during overnight growth. An inoculating culture was prepared by centrifuging an aliquot of overnight culture at 3,000 rpm for 10 min, removal of the supernatant, and then re-suspending the pellet in 95:5 M9+:LB at 10-fold the initial volume (effecting a 1-in-10 dilution; OD600 ˜0.1-0.2). Using a multi-channel pipette, this culture was added to test microtiter plates in 200 μL aliquots. The well contents were mixed using a 10 μL multi-channel pipette in a swirling motion; insoluble compound samples were noted and later excluded from the data set as needed.
Plates were covered with the provided lid and incubated statically at 37° C. for 12-24 h. Maximal biofilm formation is obtained at 24 h, after which the amount of biofilm declines unless fresh nutrients are provided. After incubation, the OD600 was measured, and the bacterial suspension was removed by inverting and shaking the plate over a waste pan and then taping on a paper towel (process termed “dumping”). Non-biofilm associated biomaterial was removed by adding 225 μL PBS and dumping (process termed “washing”) and then repeating this washing process. Biofilm was fixed to the microtiter plates by uncovering the plate and thermally dehydrating at 37° C. […]

[2] = tested on: P. aeruginosa PAO1 gen-gfp; assay: constitutive GFP production (general protein synthesis); type: cell-based, Pseudomonas aeruginosa; settings: 24 h; dose-response
Procedure: Compounds 7 and 21 were tested for their effect on general protein synthesis in P. aeruginosa. In these assays a P. aeruginosa strain that constitutively produced GFP was employed. […] [59]
The constitutively-expressing genomic (gen)-GFP strain, PAO1 gen-gfp, was prepared using the mini-Tn7 transposon system reported by Lambertsen et al. and Koch et al. to introduce the Tn7 element miniTn7-gfp2 into the neutral chromosomal site attTn7 in the PAO1 genome. The Tn7 element miniTn7-gfp2 was chosen for these studies because it encodes for the same GFP variant, GFPmut3b, used in our QS reporters, discussed herein below. However, rather than being an unstable GFP under the control of the laslI or rhII QS-dependent promoter as in the QS reporters, GFP is stable and under the control of the constitutive E. coli lac-promoter derivative PA1/04/03. The use of this strain allows a comparison of QS-dependent and non-QS-dependent gene expression in the presence of 7 and 21.
Compounds 7 and 21 were evaluated for their ability to affect constitutive GFP production in the P. aeruginosa PAO1 gen-gfp strain using the static biofilm assay conditions described above. […] Measurements of FL500/540 and OD600 were made at 24 h, after which the samples were evaluated for biofilm formation using the CV procedure. […]

[3] = 12 h incubation, CV assay, read-out: 12 h biofilm IC50
[4] = 24 h incubation, CV assay, read-out: 24 h biofilm IC50
[5] = added exogenously to solution, read-out: IC50 for biofilm inhibition
[6] = 24 h, read-out: IC50 for biofilm inhibition
[7] = Table 1, crystal violet, read-out: IC50, P. aeruginosa PAO1 biofilm inhibition

Row | SMILES | inhibition of biofilm formation ([1]; 24 h) [%] | IC50 [1, 3] [µM] | IC50 [1, 4] [µM] | IC50 [1, 5] [µM] | IC50 [1, 6] [µM] | IC50 [1, 7] [µM] | effect on constitutive GFP production / protein synthesis [2] | concentrations at which inhibitor (not activator) of biofilm formation ([1]; P. aeruginosa) [mM] | fold more active than parent compound 7 ([1]; biofilm inhibition IC50) [fold]
1 | Nc1nc2ccccc2[nH]1 [Compound 7, 2-aminobenzimidazole] | 94 | 50.5 | 46.8 | 47 | 47 | 47 | only inhibit the production of GFP at concentrations where bacterial growth is also inhibited; also recorded: do not simply globally affect protein synthesis | – | –
2 | Cc1cc2nc(N)[nH]c2cc1C [Compound 21, 5,6-Dimethyl-2-aminobenzimidazole] | – | 4.3 | 4 | 4 | 4 | 4 | only inhibit the production of GFP at concentrations where bacterial growth is also inhibited; also recorded: do not simply globally affect protein synthesis | ≤ 3.2 | ~10
